Laboratory results reported in article PMC3816012 (Structure (London, England : 1993), 2013).

Molecular target: Qcl (Legionella pneumophila, UniProt O54635)
Test: biochemical

Sequence of Qcl (O54635 49-191 limits assumed): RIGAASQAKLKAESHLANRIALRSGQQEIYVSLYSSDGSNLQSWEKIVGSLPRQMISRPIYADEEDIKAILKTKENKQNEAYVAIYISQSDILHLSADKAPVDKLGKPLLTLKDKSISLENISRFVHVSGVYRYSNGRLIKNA

For `NC(=O)c1ccc[n+]([C@@H]2O[C@H](COP(=O)(O)OP(=O)(O)OC[C@H]3O[C@@H](n4cnc5c(N)ncnc54)[C@H](O)[C@@H]3O)[C@@H](O)[C@H]2O)c1` [NAD+], the Kd was 400 to 600 µM.
